In US11433099B2, “Immunotherapy with B*08 restricted peptides and combination of peptides against cancers and related methods” (Immatics Biotechnologies GmbH, priority 2018, dated 2022):

How the values were obtained:
[1] = molecular target: HLA-B*08:01 (Homo sapiens, UniProt P01889); experiment: MHC binding assay (UV-ligand exchange, beta2m ELISA); settings: MHC class I binding score; binding to HLA-B*08:01 ranged by peptide exchange yield (UV-ligand exchange, β2m ELISA)
Method in brief: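 Peptide–HLA complexes generated by UV-ligand exchange of a UV-cleavable peptide for the test peptide; exchange yield read by β2m ELISA on streptavidin capture (samples diluted 100-fold, 1 h 37 °C), HRP anti-β2m, TMB, A450. Quantified against refolded HLA-A*02:01/MLA-001 monomer standards (15-500 ng/ml).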

[2] = test system: CD8+ T cells of healthy HLA-B*08 donors; experiment: In vitro T-cell priming assay with aAPCs loaded with peptide/MHC complexes and anti-CD28 antibody, pMHC multimer readout; type: cell-based, human; settings: in vitro immunogenicity
From the text: In order to obtain information regarding the immunogenicity of the TUMAPs of the present invention, the inventors performed investigations using an in vitro T-cell priming assay based on repeated stimulations of CD8+ T cells with artificial antigen presenting cells (aAPCs) loaded with peptide/MHC complexes and anti-CD28 antibody.
In order to perform in vitro stimulations by artificial antigen presenting cells loaded with peptide-MHC complex (pMHC) and anti-CD28 antibody, the inventors first isolated CD8+ T cells from fresh HLA-B*08 leukapheresis products via positive selection using CD8 microbeads (Miltenyi Biotec, Bergisch-Gladbach, Germany) of healthy donors obtained from the University clinics Mannheim, Germany, after informed consent.
PBMCs and isolated CD8+ lymphocytes were incubated in T-cell medium (TCM) until use consisting of RPMI-Glutamax (Invitrogen, Karlsruhe, Germany) supplemented with 10% heat inactivated human AB serum (PAN-Biotech, Aidenbach, Germany), 100 U/ml Penicillin/100 μg/ml Streptomycin (Cambrex, Cologne, Germany), 1 mM sodium pyruvate (CC Pro, Oberdorla, Germany), 20 μg/ml Gentamycin (Cambrex). 2.5 ng/ml IL-7 (PromoCell, Heidelberg, Germany) and 10 U/ml IL-2 (Novartis Pharma, Nornberg, Germany) were also added to the TCM at this step.
Generation of pMHC/anti-CD28 coated beads, T-cell stimulations and readout was performed in a highly defined in vitro system using four different pMHC molecules per stimulation condition and 8 different pMHC molecules per readout condition.
The purified co-stimulatory mouse IgG2a anti human CD28 Ab 9.3 (Jung et al., 1987) was chemically biotinylated using Sulfo-N-hydroxysuccinimidobiotin as recommended by the manufacturer (Perbio, Bonn, Germany). Beads used were 5.6 μm diameter streptavidin coated polystyrene particles (Bangs Laboratories, Illinois, USA).
800.000 beads/200 μl were coated in 96-well plates in the presence of 4×12.5 ng different biotin-pMHC, washed and 600 ng biotin anti-CD28 were added subsequently in a volume of 200 μl. Stimulations were initiated in 96-well plates by co-incubating 1×10^6 CD8+ T cells with 2×10^5 washed coated beads in 200 μl TCM supplemented with 5 ng/ml IL-12 (PromoCell) for 3 days at 37° C. Half of the medium was then exchanged by fresh TCM supplemented with 80 U/ml IL-2 and incubating was continued for 4 days at 37° C. This stimulation cycle was performed for a total of three times. For the pMHC multimer readout using 8 different pMHC molecules per condition, a two-dimensional combinatorial coding approach was used as previously described (Andersen et al., 2012) with minor modifications encompassing coupling to 5 different fluorochromes. Finally, multimeric analyses were performed by staining the cells with Live/dead near IR dye (Invitrogen, Karlsruhe, Germany), CD8-FITC antibody clone SK1 (BD, Heidelberg, Germany) and fluorescent pMHC multimers. For analysis, a BD LSRII SORP cytometer equipped with appropriate lasers and filters was used. Peptide specific cells were calculated as percentage of total CD8+ cells. Evaluation of multimeric analysis was done using the FlowJo software (Tree Star, Oregon, USA). In vitro priming of specific multimer+CD8+ lymphocytes was detected by comparing to negative control stimulations.

[3] = HLA class I peptides, Table 10B

57 (MPLKHYLL; listed as Homo sapiens) [compound 57]
Peptide exchange [1]: ++ (20% = ++) | Wells positive [%] [2, 3]: +++ (50%-69%= +++)

41 (RGALRTLSL; listed as Homo sapiens) [compound 41]
Peptide exchange [1]: ++ (20% = ++) | Wells positive [%] [2, 3]: + (<20% = +)

40 (ESMLKTTL; listed as Homo sapiens) [compound 40]
Peptide exchange [1]: ++ (20% = ++) | Wells positive [%] [2, 3]: + (<20% = +)

71 (HIRIKHTF; listed as Homo sapiens) [compound 71]
Peptide exchange [1]: +++ (50% = +++) | Wells positive [%] [2, 3]: ++ (20%-49% = ++)

38 (EVYQKIIL; listed as Homo sapiens) [compound 38]
Peptide exchange [1]: +++ (50% = +++) | Wells positive [%] [2, 3]: ++++ (>=70% = ++++)

3 (SIQSRYISM; listed as Homo sapiens) [compound 3]
Peptide exchange [1]: +++ (50% = +++) | Wells positive [%] [2, 3]: ++ (20%-49% = ++)

35 (ELFQRPVL; listed as Homo sapiens) [compound 35]
Peptide exchange [1]: ++ (20% = ++) | Wells positive [%] [2, 3]: + (<20% = +)

60 (MLHIKKAEV; listed as Homo sapiens) [compound 60]
Peptide exchange [1]: +++ (50% = +++) | Wells positive [%] [2, 3]: + (<20% = +)

18 (LSLVRKAL; listed as Homo sapiens) [compound 18]
Peptide exchange [1]: +++ (50% = +++) | Wells positive [%] [2, 3]: ++ (20%-49% = ++)

89 (VPYTKVQL; listed as Homo sapiens) [compound 89]
Peptide exchange [1]: +++ (50% = +++) | Wells positive [%] [2, 3]: + (<20% = +)

9 (LLKGKPRAL; listed as Homo sapiens) [compound 9]
Peptide exchange [1]: ++ (20% = ++) | Wells positive [%] [2, 3]: + (<20% = +)

42 (VLRRKTLL; listed as Homo sapiens) [compound 42]
Peptide exchange [1]: ++ (20% = ++) | Wells positive [%] [2, 3]: + (<20% = +)

75 (YARLKNVLL; listed as Homo sapiens) [compound 75]
Peptide exchange [1]: +++ (50% = +++) | Wells positive [%] [2, 3]: +++ (50%-69%= +++)

36 (IVKIKVQEL; listed as Homo sapiens) [compound 36]
Peptide exchange [1]: ++ (20% = ++) | Wells positive [%] [2, 3]: ++ (20%-49% = ++)

86 (RPIHHPLVL; listed as Homo sapiens) [compound 86]
Peptide exchange [1]: ++ (20% = ++) | Wells positive [%] [2, 3]: + (<20% = +)

37 (EAFSRASL; listed as Homo sapiens) [compound 37]
Peptide exchange [1]: ++ (20% = ++) | Wells positive [%] [2, 3]: ++ (20%-49% = ++)

8 (FVRPKLVTI; listed as Homo sapiens) [compound 8]
Peptide exchange [1]: +++ (50% = +++) | Wells positive [%] [2, 3]: + (<20% = +)

11 (MAPLKMLAL; listed as Homo sapiens) [compound 11]
Peptide exchange [1]: +++ (50% = +++) | Wells positive [%] [2, 3]: +++ (50%-69%= +++)

78 (DGHMKVFSL; listed as Homo sapiens) [compound 78]
Peptide exchange [1]: ++ (20% = ++) | Wells positive [%] [2, 3]: ++ (20%-49% = ++)

22 (EVRLKPIL; listed as Homo sapiens) [compound 22]
Peptide exchange [1]: ++ (20% = ++) | Wells positive [%] [2, 3]: + (<20% = +)

76 (HPRLKVNLL; listed as Homo sapiens) [compound 76]
Peptide exchange [1]: +++ (50% = +++) | Wells positive [%] [2, 3]: + (<20% = +)

74 (RLKLRYEGL; listed as Homo sapiens) [compound 74]
Peptide exchange [1]: +++ (50% = +++) | Wells positive [%] [2, 3]: ++ (20%-49% = ++)

10 (MGKFKQCF; listed as Homo sapiens) [compound 10]
Peptide exchange [1]: +++ (50% = +++) | Wells positive [%] [2, 3]: ++++ (>=70% = ++++)

63 (YVKRKTNVL; listed as Homo sapiens) [compound 63]
Peptide exchange [1]: ++ (20% = ++) | Wells positive [%] [2, 3]: + (<20% = +)

286 (ILLPRTVSL; listed as Homo sapiens) [compound 286]
Wells positive [%] ([2]; Table 10A, HLA-B*08 pMHC, healthy donors): + (<20% = +)
